Experimental data published in US20220088016A1, “CANCER TREATMENT USING MULTI-TARGETED KINASE INHIBITOR IN COMBINATION OF PROTEIN KINASE BIOMARKERS” (ZHEJIANG CROWNMAB BIOTECH CO. LTD., priority 2019, published 2022).

Experiments:
PDGFRB = PDGFRB (Homo sapiens, UniProt P09619); assay: Kinase profiling; type: binding; details: read-out: % Ctrl @ 1000 nM
CTK = CTK (Homo sapiens, UniProt P42679); assay: Kinase profiling; type: binding; details: read-out: % Ctrl @ 1000 nM
EPHA5 = EPHA5 (Homo sapiens, UniProt P54756); assay: Kinase profiling; type: binding; details: read-out: % Ctrl @ 1000 nM
PCTK2 = PCTK2 (Homo sapiens, UniProt Q00537); assay: Kinase profiling; type: binding; details: read-out: % Ctrl @ 1000 nM
FLT3 (K663Q) = FLT3 (K663Q) (Homo sapiens, UniProt P36888, K663Q); assay: Kinase profiling; type: binding; details: read-out: % Ctrl @ 1000 nM
MYLK2 = biological target: T1, MYLK2 (Homo sapiens, UniProt Q9H1R3); assay: Kinase profiling; type: binding; details: read-out: % Ctrl @ 1000 nM
T1 construct: T7 phage fusion (said for most assays); made in house

LCK = LCK (Homo sapiens, UniProt P06239); assay: Kinase profiling; type: binding; details: read-out: % Ctrl @ 1000 nM
ADCK4 = ADCK4 (Homo sapiens, UniProt Q96D53); assay: Kinase profiling; type: binding; details: read-out: % Ctrl @ 1000 nM
ROCK2 = ROCK2 (Homo sapiens, UniProt O75116); assay: Kinase profiling; type: binding; details: read-out: % Ctrl @ 1000 nM
MAP4K2 = MAP4K2 (Homo sapiens, UniProt Q12851); assay: Kinase profiling; type: binding; details: read-out: % Ctrl @ 1000 nM
FGFR2 (h) = biological target: T2, FGFR2 (h) (Homo sapiens, UniProt P21802); assay: Kinase IC50 (Eurofins KinaseProfiler); type: biochemical
T2 construct: purchased Eurofins (KinaseProfiler service)
Protocol: (§1) CBT-102 were tested against each of the selected kinases using the Eurofins standard KinaseProfder assays and following the relevant standard operating procedures. The required volume of the 50× stock of test compound (CBT-102) was added to the assay well, before a reaction mix containing the enzyme and substrate was added. The reaction was initiated by the addition of ATP at the selected concentration. There was no pre-incubation of the compound with the enzyme/substrate mix prior to ATP addition.
(§2) Data are handled using a custom-built in-house analysis software. Results are expressed as kinase activity remaining, as a percentage of the DMSO control. This is calculated using the following formula: […]
(§3) For IC50 determinations, data are analyzed using XLFit version 5.3 (ID Business Solutions).

Plk1 (h) = biological target: T3, Plk1 (h) (Homo sapiens, UniProt P53350); assay: Kinase IC50 (Eurofins KinaseProfiler); type: biochemical
T3 construct: purchased Eurofins
Protocol: as §1, §2, §3

CDK4/cyclinD3 (h) = biological target: T4, CDK4/cyclinD3 (h) (Homo sapiens, UniProt P11802); assay: Kinase IC50 (Eurofins KinaseProfiler); type: biochemical
T4 construct: purchased Eurofins (KinaseProfiler service)
Protocol: as §1, §2, §3

SAPK2b (h) = biological target: T5, SAPK2b (h) (Homo sapiens, UniProt Q15759); assay: Kinase IC50 (Eurofins KinaseProfiler); type: biochemical
T5 construct: purchased Eurofins
Protocol: as §1, §2, §3

CDKL2 (h) = biological target: T6, CDKL2 (h) (Homo sapiens, UniProt Q92772); assay: Kinase IC50 (Eurofins KinaseProfiler); type: biochemical
T6 construct: purchased Eurofins (KinaseProfiler service)
Protocol: as §1, §2, §3

Fms (h) (CSF1R) = biological target: T7, Fms (h) (CSF1R) (Homo sapiens, UniProt P07333); assay: Kinase IC50 (Eurofins KinaseProfiler); type: biochemical
T7 construct: purchased Eurofins (KinaseProfiler service)
Protocol: as §1, §2, §3

IKKβ (h) = biological target: T8, IKKβ (h) (Homo sapiens, UniProt O14920); assay: Kinase IC50 (Eurofins KinaseProfiler); type: biochemical
T8 construct: purchased Eurofins (KinaseProfiler service)
Protocol: as §1, §2, §3

Tie2 (h) = biological target: T9, Tie2 (h) (Homo sapiens, UniProt Q02763); assay: Kinase IC50 (Eurofins KinaseProfiler); type: biochemical
T9 construct: purchased Eurofins
Protocol: as §1, §2, §3

MAP4K5 (h) = biological target: T10, MAP4K5 (h) (Homo sapiens, UniProt Q9Y4K4); assay: Kinase IC50 (Eurofins KinaseProfiler); type: biochemical
T10 construct: purchased Eurofins (KinaseProfiler service)
Protocol: as §1, §2, §3

ErbB2 (h) = biological target: T11, ErbB2 (h) (Homo sapiens, UniProt P04626); assay: Kinase IC50 (Eurofins KinaseProfiler); type: biochemical
T11 construct: purchased Eurofins (KinaseProfiler service)
Protocol: as §1, §2, §3

NEK2 (h) = biological target: T12, NEK2 (h) (Homo sapiens, UniProt P51955); assay: Kinase IC50 (Eurofins KinaseProfiler); type: biochemical
T12 construct: purchased Eurofins (KinaseProfiler service)
Protocol: as §1, §2, §3

Aurora-C (h) = biological target: T13, Aurora-C (h) (Homo sapiens, UniProt Q9UQB9); assay: Kinase IC50 (Eurofins KinaseProfiler); type: biochemical
T13 construct: purchased Eurofins
Protocol: as §1, §2, §3

PAK3 = PAK3 (Homo sapiens, UniProt O75914); assay: Kinase profiling; type: binding; details: read-out: % Ctrl @ 1000 nM
CAMK4 = CAMK4 (Homo sapiens, UniProt Q16566); assay: Kinase profiling; type: binding; details: read-out: % Ctrl @ 1000 nM
TNIK = TNIK (Homo sapiens, UniProt Q9UKE5); assay: Kinase profiling; type: binding; details: read-out: % Ctrl @ 1000 nM
PCTK1 = PCTK1 (Homo sapiens, UniProt Q00536); assay: Kinase profiling; type: binding; details: read-out: % Ctrl @ 1000 nM
MEK5 = biological target: T14, MEK5 (Homo sapiens, UniProt Q13163); assay: Kinase profiling; type: binding; details: read-out: % Ctrl @ 1000 nM
T14 construct: T7 phage fusion (stated for most kinases of the panel only); made in house; host or cells: T7 phage in E. coli (BL21-derived) or HEK-293 cells

PAK4 = PAK4 (Homo sapiens, UniProt O96013); assay: Kinase profiling; type: binding; details: read-out: % Ctrl @ 1000 nM
[1] = biological target: RPS6KA4 (Kin.Dom.2-C-terminal) (Homo sapiens, UniProt O75676); assay: Kinase profiling; type: binding; details: read-out: % Ctrl @ 1000 nM
ERK8 = ERK8 (Homo sapiens, UniProt Q8TD08); assay: Kinase profiling; type: binding; details: read-out: % Ctrl @ 1000 nM
CSK = CSK (Homo sapiens, UniProt P41240); assay: Kinase profiling; type: binding; details: read-out: % Ctrl @ 1000 nM
HIPK1 = HIPK1 (Homo sapiens, UniProt Q86Z02); assay: Kinase profiling; type: binding; details: read-out: % Ctrl @ 1000 nM
PRKCQ = PRKCQ (Homo sapiens, UniProt Q04759); assay: Kinase profiling; type: binding; details: read-out: % Ctrl @ 1000 nM
EPHB2 = EPHB2 (Homo sapiens, UniProt P29323); assay: Kinase profiling; type: binding; details: read-out: % Ctrl @ 1000 nM
CASK = CASK (Homo sapiens, UniProt O14936); assay: Kinase profiling; type: binding; details: read-out: % Ctrl @ 1000 nM

Sequence of CAMK4 (Q16566 whole entry): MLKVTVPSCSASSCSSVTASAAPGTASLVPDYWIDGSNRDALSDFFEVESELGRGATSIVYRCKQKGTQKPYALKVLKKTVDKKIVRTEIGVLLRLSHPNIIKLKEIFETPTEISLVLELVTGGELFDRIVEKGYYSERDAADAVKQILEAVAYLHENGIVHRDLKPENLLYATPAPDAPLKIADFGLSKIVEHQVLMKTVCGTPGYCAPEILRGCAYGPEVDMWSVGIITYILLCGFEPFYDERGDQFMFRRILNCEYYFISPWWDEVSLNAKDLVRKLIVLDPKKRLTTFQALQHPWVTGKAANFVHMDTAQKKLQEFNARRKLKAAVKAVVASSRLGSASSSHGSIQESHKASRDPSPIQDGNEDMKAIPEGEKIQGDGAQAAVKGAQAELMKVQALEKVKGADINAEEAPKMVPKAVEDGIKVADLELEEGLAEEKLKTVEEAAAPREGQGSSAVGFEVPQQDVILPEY
Sequence of PCTK1 (Q00536 whole entry): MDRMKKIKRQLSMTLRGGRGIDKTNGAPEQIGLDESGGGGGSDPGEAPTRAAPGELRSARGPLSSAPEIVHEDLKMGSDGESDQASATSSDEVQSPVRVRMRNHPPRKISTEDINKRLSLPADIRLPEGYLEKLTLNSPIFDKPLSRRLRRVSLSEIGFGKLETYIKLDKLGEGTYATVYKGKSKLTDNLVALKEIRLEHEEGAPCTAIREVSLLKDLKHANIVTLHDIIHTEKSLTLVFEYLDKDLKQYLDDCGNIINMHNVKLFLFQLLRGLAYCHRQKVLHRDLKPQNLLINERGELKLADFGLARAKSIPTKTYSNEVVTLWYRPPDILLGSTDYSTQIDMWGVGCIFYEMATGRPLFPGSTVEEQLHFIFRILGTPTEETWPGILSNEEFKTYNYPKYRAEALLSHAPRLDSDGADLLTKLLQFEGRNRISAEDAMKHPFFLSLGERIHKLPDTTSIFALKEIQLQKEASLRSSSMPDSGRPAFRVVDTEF
T3 sequence (P53350 whole entry): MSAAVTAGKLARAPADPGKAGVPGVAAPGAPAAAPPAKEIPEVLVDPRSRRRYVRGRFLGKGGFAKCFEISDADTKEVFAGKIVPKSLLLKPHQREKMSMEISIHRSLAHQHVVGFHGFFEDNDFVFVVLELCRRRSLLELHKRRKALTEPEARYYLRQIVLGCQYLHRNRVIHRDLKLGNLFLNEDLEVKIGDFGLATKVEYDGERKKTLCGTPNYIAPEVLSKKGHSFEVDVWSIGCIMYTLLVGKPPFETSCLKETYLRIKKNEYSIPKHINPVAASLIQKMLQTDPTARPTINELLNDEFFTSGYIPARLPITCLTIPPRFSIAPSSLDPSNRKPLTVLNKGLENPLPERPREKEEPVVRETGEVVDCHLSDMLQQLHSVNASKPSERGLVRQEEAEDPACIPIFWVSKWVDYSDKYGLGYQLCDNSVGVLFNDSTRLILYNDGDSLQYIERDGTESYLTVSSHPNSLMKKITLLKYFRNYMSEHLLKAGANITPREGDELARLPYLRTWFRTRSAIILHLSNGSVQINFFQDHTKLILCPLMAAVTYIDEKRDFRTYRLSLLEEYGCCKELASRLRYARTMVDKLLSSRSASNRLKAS
Sequence of ROCK2 (O75116 whole entry): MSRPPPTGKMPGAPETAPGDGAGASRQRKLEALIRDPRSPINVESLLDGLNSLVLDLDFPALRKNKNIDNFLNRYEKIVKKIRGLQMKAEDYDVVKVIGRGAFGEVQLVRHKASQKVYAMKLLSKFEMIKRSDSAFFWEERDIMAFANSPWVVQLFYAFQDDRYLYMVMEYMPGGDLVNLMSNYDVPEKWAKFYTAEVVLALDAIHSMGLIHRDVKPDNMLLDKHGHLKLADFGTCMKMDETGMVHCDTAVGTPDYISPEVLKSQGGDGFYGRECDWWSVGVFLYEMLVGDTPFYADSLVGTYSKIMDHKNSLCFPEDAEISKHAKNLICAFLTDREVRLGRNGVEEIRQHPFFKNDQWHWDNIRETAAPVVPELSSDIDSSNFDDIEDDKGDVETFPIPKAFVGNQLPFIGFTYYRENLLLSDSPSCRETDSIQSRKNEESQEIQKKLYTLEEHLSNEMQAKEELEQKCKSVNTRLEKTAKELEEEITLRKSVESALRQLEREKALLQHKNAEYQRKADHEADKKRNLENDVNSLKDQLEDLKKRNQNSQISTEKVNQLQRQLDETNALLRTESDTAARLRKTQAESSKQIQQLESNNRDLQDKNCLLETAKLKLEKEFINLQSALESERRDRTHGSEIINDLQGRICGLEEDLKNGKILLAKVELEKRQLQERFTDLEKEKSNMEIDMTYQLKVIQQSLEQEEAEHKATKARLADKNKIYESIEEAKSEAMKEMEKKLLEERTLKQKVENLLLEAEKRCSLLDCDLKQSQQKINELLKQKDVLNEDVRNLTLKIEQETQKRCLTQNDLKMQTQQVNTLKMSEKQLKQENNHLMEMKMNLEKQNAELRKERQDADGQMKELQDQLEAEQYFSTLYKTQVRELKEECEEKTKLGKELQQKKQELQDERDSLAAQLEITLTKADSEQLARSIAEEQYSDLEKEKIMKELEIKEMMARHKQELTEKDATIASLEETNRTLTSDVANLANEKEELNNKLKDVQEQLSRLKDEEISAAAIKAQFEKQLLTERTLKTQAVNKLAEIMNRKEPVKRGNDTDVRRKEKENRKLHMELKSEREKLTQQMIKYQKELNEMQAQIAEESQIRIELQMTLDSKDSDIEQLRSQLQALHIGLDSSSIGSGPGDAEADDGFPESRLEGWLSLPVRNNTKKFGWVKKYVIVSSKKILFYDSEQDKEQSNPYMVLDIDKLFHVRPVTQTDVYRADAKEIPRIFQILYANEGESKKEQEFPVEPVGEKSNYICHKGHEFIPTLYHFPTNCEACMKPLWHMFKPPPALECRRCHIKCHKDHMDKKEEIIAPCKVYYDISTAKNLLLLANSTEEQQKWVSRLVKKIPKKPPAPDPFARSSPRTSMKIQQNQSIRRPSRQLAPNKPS
T11 sequence (P04626 23-1255): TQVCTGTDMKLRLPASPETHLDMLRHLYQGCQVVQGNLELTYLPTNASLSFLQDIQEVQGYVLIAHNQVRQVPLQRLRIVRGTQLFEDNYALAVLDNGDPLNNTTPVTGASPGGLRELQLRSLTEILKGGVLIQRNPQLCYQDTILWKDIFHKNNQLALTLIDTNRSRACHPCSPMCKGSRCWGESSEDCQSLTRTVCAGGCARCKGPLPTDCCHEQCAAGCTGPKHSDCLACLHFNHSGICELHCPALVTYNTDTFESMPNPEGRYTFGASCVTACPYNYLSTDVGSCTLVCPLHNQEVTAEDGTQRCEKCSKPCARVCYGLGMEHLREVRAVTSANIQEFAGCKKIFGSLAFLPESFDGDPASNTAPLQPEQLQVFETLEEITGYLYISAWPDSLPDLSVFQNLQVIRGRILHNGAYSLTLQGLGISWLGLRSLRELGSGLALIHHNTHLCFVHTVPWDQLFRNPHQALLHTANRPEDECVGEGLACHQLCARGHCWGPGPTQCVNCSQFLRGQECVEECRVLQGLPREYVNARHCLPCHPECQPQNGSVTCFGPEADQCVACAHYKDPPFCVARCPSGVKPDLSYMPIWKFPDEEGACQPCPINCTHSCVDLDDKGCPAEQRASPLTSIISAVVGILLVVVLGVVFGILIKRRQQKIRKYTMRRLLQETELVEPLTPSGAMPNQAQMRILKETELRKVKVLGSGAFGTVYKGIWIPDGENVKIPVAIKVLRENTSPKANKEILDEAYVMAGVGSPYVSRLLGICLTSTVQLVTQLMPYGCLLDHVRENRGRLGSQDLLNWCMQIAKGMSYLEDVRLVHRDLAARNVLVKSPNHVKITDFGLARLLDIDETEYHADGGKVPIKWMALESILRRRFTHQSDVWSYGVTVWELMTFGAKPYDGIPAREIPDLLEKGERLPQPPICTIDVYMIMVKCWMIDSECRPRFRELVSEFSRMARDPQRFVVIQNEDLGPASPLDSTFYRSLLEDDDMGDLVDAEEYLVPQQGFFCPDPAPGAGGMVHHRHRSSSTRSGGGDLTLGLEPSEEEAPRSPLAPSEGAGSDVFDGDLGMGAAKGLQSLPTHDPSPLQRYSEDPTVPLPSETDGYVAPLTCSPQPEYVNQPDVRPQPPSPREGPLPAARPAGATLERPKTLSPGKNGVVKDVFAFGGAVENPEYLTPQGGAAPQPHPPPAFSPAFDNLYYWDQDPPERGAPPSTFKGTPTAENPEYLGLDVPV
Sequence of PCTK2 (Q00537 whole entry): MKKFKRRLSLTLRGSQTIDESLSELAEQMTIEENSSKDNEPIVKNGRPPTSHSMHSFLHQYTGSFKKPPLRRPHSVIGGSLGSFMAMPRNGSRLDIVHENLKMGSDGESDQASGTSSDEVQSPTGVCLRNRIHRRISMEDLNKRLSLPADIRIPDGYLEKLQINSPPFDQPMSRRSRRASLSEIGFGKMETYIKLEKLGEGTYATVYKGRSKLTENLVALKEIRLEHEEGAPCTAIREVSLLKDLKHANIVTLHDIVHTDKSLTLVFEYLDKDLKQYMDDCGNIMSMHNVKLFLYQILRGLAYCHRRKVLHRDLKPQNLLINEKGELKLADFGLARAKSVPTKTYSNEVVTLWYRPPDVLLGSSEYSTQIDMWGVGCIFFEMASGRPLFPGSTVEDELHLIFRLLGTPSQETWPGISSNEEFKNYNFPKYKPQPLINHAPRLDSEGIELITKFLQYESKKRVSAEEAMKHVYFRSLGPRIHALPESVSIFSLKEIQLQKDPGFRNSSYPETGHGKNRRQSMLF
Sequence of RPS6KA4 (Kin.Dom.2-C-terminal) (O75676 411-674 limits assumed): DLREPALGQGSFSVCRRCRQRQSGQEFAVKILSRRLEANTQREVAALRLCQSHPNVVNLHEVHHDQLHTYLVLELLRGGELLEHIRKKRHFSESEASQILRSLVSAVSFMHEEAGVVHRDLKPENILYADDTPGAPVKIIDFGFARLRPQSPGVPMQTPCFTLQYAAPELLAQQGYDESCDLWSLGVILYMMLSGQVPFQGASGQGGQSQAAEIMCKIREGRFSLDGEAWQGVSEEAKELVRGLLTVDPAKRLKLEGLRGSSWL

Q: `Cc1cc(Oc2cc(NC(=O)C3CC3)ncn2)ccc1NC(=O)Nc1ccc(Cl)c(C(F)(F)F)c1` [CBT-102] was tested. Which remaining activity at 1 µM (PDGFRB) did it give?
A: 0%

Q: What about the remaining activity at 1 µM (CTK) of the same compound?
A: 74%

Q: What about the remaining activity at 1 µM (EPHA5) of the same compound?
A: 52%

Q: What about the remaining activity at 1 µM (PCTK2) of the same compound?
A: 44%

Q: And the remaining activity at 1 µM (FLT3 (K663Q))?
A: 3.9%

Q: What about the remaining activity at 1 µM (MYLK2) of the same compound?
A: 98%

Q: And the remaining activity at 1 µM (LCK)?
A: 15%

Q: And the remaining activity at 1 µM (ADCK4)?
A: 88%

Q: What about the remaining activity at 1 µM (ROCK2) of the same compound?
A: 100%

Q: And the remaining activity at 1 µM (MAP4K2)?
A: 91%

Q: What about the IC50 (FGFR2 (h)) of the same compound?
A: 596 nM

Q: And the IC50 (Plk1 (h))?
A: > 10000 nM

Q: What about the IC50 (CDK4/cyclinD3 (h)) of the same compound?
A: > 10000 nM

Q: What about the IC50 (SAPK2b (h)) of the same compound?
A: 70 nM

Q: What about the IC50 (CDKL2 (h)) of the same compound?
A: 37 nM

Q: What about the IC50 (Fms (h) (CSF1R)) of the same compound?
A: 43 nM

Q: What about the IC50 (IKKβ (h)) of the same compound?
A: > 10000 nM

Q: And the IC50 (Tie2 (h))?
A: 242 nM

Q: And the IC50 (MAP4K5 (h))?
A: 24 nM

Q: What about the IC50 (ErbB2 (h)) of the same compound?
A: > 10000 nM

Q: What about the IC50 (NEK2 (h)) of the same compound?
A: > 10000 nM

Q: What about the IC50 (Aurora-C (h)) of the same compound?
A: > 10000 nM

Q: And the remaining activity at 1 µM (PAK3)?
A: 100%

Q: What about the remaining activity at 1 µM (CAMK4) of the same compound?
A: 100%

Q: What about the remaining activity at 1 µM (TNIK) of the same compound?
A: 8.3%

Q: And the remaining activity at 1 µM (PCTK1)?
A: 88%

Q: And the remaining activity at 1 µM (MEK5)?
A: 6.2%

Q: And the remaining activity at 1 µM (PAK4)?
A: 100%

Q: And the remaining activity at 1 µM [1]?
A: 100%

Q: What about the remaining activity at 1 µM (ERK8) of the same compound?
A: 0.6%

Q: And the remaining activity at 1 µM (CSK)?
A: 29%

Q: What about the remaining activity at 1 µM (HIPK1) of the same compound?
A: 96%

Q: And the remaining activity at 1 µM (PRKCQ)?
A: 95%

Q: And the remaining activity at 1 µM (EPHB2)?
A: 44%

Q: And the remaining activity at 1 µM (CASK)?
A: 98%
